The values below come from publication PMC4671257, “Plasmodium falciparum SERA5 plays a non-enzymatic role in the malarial asexual blood-stage lifecycle” (Molecular Microbiology, 2015).

Molecules are shown by their SMILES.

This test deals with SERA5 (rSERA5-C) (Plasmodium falciparum, UniProt Q9TY95, S596C). The test can be described thus: fluorogenic peptide (Abz-LAQAVRSSSR-Dpa) cleavage assay with purified rSERA5-C, progress curves. The format is biochemical.

For `CC(C)C[C@H](NC(=O)[C@H]1O[C@@H]1C(=O)O)C(=O)NCCCCN=C(N)N` [E64, trans-epoxysuccinyl-L-leucylamido(4-guanidino)butane], the IC50 was 2900 ± 300 nM.

What is called IC50 is the concentration that inhibits the measured activity by half. The low end stands for higher potency, the high end for lower potency.
